Results from patent publication US20100196273A1, “NOVEL AGENT FOR IN VIVO PET IMAGING OF TUMOR PROLIFERATION” (Board of Regents, University of Texas System, priority 2007, published 2010).

Assays:
[1] = reported, Liu et al. 1998; cited from earlier work
hepatitis B virus (HBV) = settings: reported, Liu et al. 1998; cited from earlier work
Epstein-Barr virus = settings: reported, Liu et al. 1998; cited from earlier work
[2] = system: human immunodeficiency virus; settings: reported, Liu et al. 1998; cited from earlier work
[3] = system: H441 (rapidly growing) human NSCLC tumor xenografts; assay: microPET imaging of tumor proliferative activity, H441 NSCLC xenografts; type: in vivo, nude mice; settings: 3.7 MBq via tail vein, 2 h post-injection
Description: (§1) All radiotracers were synthesized following literature methods. Two human NSCLC cell lines, H441 (rapidly growing) and H3255 (slow growing) were used to grow (s.c.) tumor xenografts in nude mice. Eight nu/nu mice were injected with 3×10^6 cells (H3255) onto right shoulder, and 3 weeks later, 3×10^6 cells (H441) were injected onto opposite shoulder. When tumors grew approximately 1 cm in diameter, PET imaging with [^18F]-FLT, [^18F]-D-FMAU [^18F]-L-FMAU were performed on three consecutive days. Each animal received 3.7 MBq of radiotracer via the tail vein, then dynamic scan was performed using micro-PET up to 2 hours of post-injection.
(§2) Tumor uptake and tumor-to-muscle (T/M) ratios of [^18F]-FLT, [^18F]-D-FMAU and [^18F]L-FMAU for different tumors are summarized in Table 1. […] On the other hand, tumor-to muscle ratio of [^18F]-FLT accumulation was higher than that for [^18F]-D-FMAU and [^18F]-L-FMAU.

[4] = system: H3255 (slow growing) human NSCLC tumor xenografts; assay: microPET imaging of tumor proliferative activity, H3255 NSCLC xenografts; type: in vivo, nude mice; settings: 3.7 MBq via tail vein, 2 h post-injection
Description: as §1, §2

[5] = system: Colo205 human colon cancer tumor xenografts; assay: micro-PET imaging of tumor proliferative activity, Colo205 colon cancer xenografts; type: in vivo, nude mice; settings: 3.7 MBq via tail vein, 2 h post-injection
Description: The radiotracers, [^18F]-FLT, [^18F]-D-FMAU and [^18F]-L-FMAU, were synthesized according literature methods in high specific activity. Human colon cancer cells, Colo205 were used to grow tumor xenografts in nude mice. Four nu/nu mice were injected (s.c.) with 3×10^6 cells onto the shoulder. When tumors were approximately 1 cm in diameter, PET imaging with [^18F]-FLT, [^18F]-D-FMAU [^18F]-L-FMAU were performed on three consecutive days using one tracer at a time. Each animal received 3.7 MBq of radiotracer via the tail vein, then dynamic imaging was performed using micro-PET up to 2 hours of post-injection.
However, tumor-to muscle ratio of [^18F]-FLT accumulation was lower than that of [^18F]-D-FMAU and [^18F]-L-FMAU. [^18F]-L-FMAU had higher uptake and tumor/muscle ratio compared to the D-[^18F]-FMAU, which is probably due to higher resistance to metabolic degradation.

Row | SMILES | cytotoxicity [1] | antiviral activity against hepatitis B virus (hepatitis B virus (HBV)) | antiviral activity against Epstein-Barr virus (Epstein-Barr virus) | antiviral activity against human immunodeficiency virus [2] | Tumor uptake % ID/g [3] | tumor-to-muscle (T/M) ratio [3] | Tumor uptake % ID/g [4] | tumor-to-muscle (T/M) ratio [4] | Tumor uptake % ID/g [5] | tumor-to-muscle (T/M) ratio [5]
1 | Cc1cn([C@H]2O[C@@H](CO)[C@H](O)[C@H]2F)c(=O)[nH]c1=O [L-FMAU, 2′-Deoxy-2′-fluoro-5-methyl-1-β-L-arabinofuranosyl-uracil] | low cytotoxicity | potential antiviral activities | potential antiviral activities | not human immunodeficiency virus | – | – | – | – | – | –
2 | Cc1cn([C@@H]2O[C@H](CO)[C@@H](O)[C@@H]2[18F])c(=O)[nH]c1=O [[^18F]-D-FMAU] | – | – | – | – | 7.74 ± 1.39 % ID/g | 3.37 ± 1.19 | 4.49 ± 1.08 % ID/g | 1.96 ± 0.74 | 2.37 ± 0.58 % ID/g | 1.95 ± 0.37
3 | Cc1cn([C@H]2C[C@H]([18F])[C@@H](CO)O2)c(=O)[nH]c1=O [[^18F]-FLT, [^18F]-3′-deoxy-3′-fluorothymidine] | – | – | – | – | 5.10 ± 1.45 % ID/g | 12.94 ± 4.38 | 0.57 ± 0.33 % ID/g | 1.50 ± 0.90 | 5.20 ± 1.32 % ID/g | 1.51 ± 0.61
4 | Cc1cn([C@H]2O[C@@H](CO)[C@H](O)[C@H]2[18F])c(=O)[nH]c1=O [[^18F]-L-FMAU, 2′ deoxy-2′-[^18F]-fluoro-5-methyl-1-β-L-arabinofuranosyluracil] | – | – | – | – | 3.13 ± 1.11 % ID/g | 4.15 ± 1.82 | 1.38 ± 0.81 % ID/g | 1.62 ± 0.50 | 2.93 ± 0.75 % ID/g | 2.85 ± 0.89
